Values of other authors in patent publication KR20140119363A, “보리코나졸이 함유된 안정화된 조성물” (에스케이케미칼주식회사, priority 2013, dated 2014).

Columns and labels:
[1] = degradation product triazole acetophenone formed
[2] = tested on: deep-seated mycosis [심재성 진균증]
[3] = in vivo

C[C@@H](c1ncncc1F)[C@](O)(Cn1cncn1)c1ccc(F)cc1F [보리코나졸]
stability to moisture and heat [1]: 수분 및 열에 불안정

CCC(C)n1ncn(-c2ccc(N3CCN(c4ccc(OCC5COC(Cn6cncn6)(c6ccc(Cl)cc6Cl)O5)cc4)CC3)cc2)c1=O (stereo not shown) [이트라코나졸]
treatment success rate ([2]; in vivo): 그다지 높지 않은

C[C@@H]1[C@H](O)[C@@H](C)/C=C/C=C/C=C/C=C/C=C/C=C/C=C/[C@H](O[C@@H]2O[C@H](C)[C@@H](O)[C@H](N)[C@@H]2O)C[C@@H]2O[C@](O)(C[C@@H](O)C[C@@H](O)[C@H](O)CC[C@@H](O)C[C@@H](O)CC(=O)O[C@H]1C)C[C@H](O)[C@H]2C(=O)O [암포테리신 B]
response rate ([2]; overall average): ~34% | nephrotoxicity [3]: 심각한 문제
